Consider two compounds from ChEMBL document CHEMBL5120919, “Micrococcin P2 Targets Clostridioides difficile” (J Nat Prod, 2022).

SMILES strings stand for the structures. In brackets after ≈: the same amount, converted by molar mass. Activity calls are given as the source filed them.

The nature of series [1]: MRT in Sprague-Dawley rat at 2 mg/kg, iv measured up to 8 hrs by LC-MS/MS analysis. As to conditions: in vivo. The series is classed as ADME, organism-based.
Series [2] deals with Clostridioides difficile. The series can be described thus: Antibacterial activity against Clostridioides difficile RT017/ST37 clinical isolate expressing A-B+ toxin assessed as inhibition of bacterial growth incubated for 24 hrs by CLSI based agar dilution method. In kind it is functional.
The subject of series [3] is RAW264.7. As to the kind of experiment: Antiinflammatory activity in mouse RAW264.7 cells assessed as decrease in LPS induced IL-1beta expression in supernatant at 5 to 40 uM measured after 24 hrs by ELISA. In kind it is functional, cell-based. As to conditions: dose 5-40 µM. (In an ELISA, binding on a coated surface is turned into a signal by an enzyme label.)
In series [4] the test system is Clostridioides difficile. The series can be described thus: Antibacterial activity against Clostridioides difficile RT002/ST8 clinical isolate expressing A+B+ toxin assessed as inhibition of bacterial growth incubated for 24 hrs by CLSI based agar dilution method. In kind it is functional. For orientation: Agar dilution tests growth on a series of plates holding different concentrations.

The nature of series [5]: MRT in Sprague-Dawley rat at 10 mg/kg, po measured up to 8 hrs by LC-MS/MS analysis. The series is classed as ADME, organism-based. The note with it: in vivo, BLD = below limit of detection.
The test system of series [6] is Clostridioides difficile. As to the kind of experiment: Antibacterial activity against Clostridioides difficile RT027/ST1 clinical isolate expressing A+B+CDT+ toxin assessed as inhibition of bacterial growth incubated for 24 hrs by CLSI based agar dilution method. In kind it is functional.
Series [7] concerns Clostridioides difficile. The series can be described thus: Antibacterial activity against Clostridioides difficile RT027 infected in DSS-induced IBD C57BL/6 mouse model assessed as survival rate at 30 mg/kg, po administered once daily for 5 days. In kind it is functional. The note with it: time 5 day.
Series [8] is described as follows: Half life in Sprague-Dawley rat at 2 mg/kg, iv measured up to 8 hrs by LC-MS/MS analysis. In kind it is ADME, organism-based. As to conditions: in vivo.
The test system of series [9] is HEK-293T. As to the kind of experiment: Cytotoxicity against HEK293T cells assessed as reduction in cell viability at 40 uM incubated for 48 hrs by CCK-8 assay. In kind it is toxicity, cell-based. As to conditions: human.
Series [10] is described as follows: Volume of distribution at steady state in Sprague-Dawley rat at 2 mg/kg, iv measured up to 8 hrs by LC-MS/MS analysis. The series is classed as ADME, organism-based. As to conditions: in vivo, read-out: Vdss.
Series [11] in a line: Clearance in Sprague-Dawley rat at 10 mg/kg, po measured up to 8 hrs by LC-MS/MS analysis. In kind it is ADME, organism-based. As to conditions: in vivo, BLD = below limit of detection.
In series [12] the test system is Clostridioides difficile. As to the kind of experiment: Antibacterial activity against Clostridioides difficile RT130/ST5 clinical isolate expressing A+B+CDT+ toxin assessed as inhibition of bacterial growth incubated for 24 hrs by CLSI based agar dilution method. In kind it is functional.
The subject of series [13] is Clostridioides difficile. The series can be described thus: Antibacterial activity against Clostridioides difficile RT018/ST17 clinical isolate expressing A+B+ toxin assessed as inhibition of bacterial growth incubated for 24 hrs by CLSI based agar dilution method. In kind it is functional.
For series [14], the system named is Clostridioides difficile. As to the kind of experiment: Antibacterial activity against Clostridioides difficile RT014/ST14 clinical isolate expressing A+B+ toxin assessed as inhibition of bacterial growth incubated for 24 hrs by CLSI based agar dilution method. In kind it is functional.
Series [15] relates to RAW264.7. The series can be described thus: Antiinflammatory activity in mouse RAW264.7 cells assessed as decrease in LPS induced IL6 expression in supernatant at 5 to 40 uM measured after 24 hrs by ELISA. In kind it is functional, cell-based. As to conditions: dose 5-40 µM.
The test system of series [16] is Clostridioides difficile. The series can be described thus: Antibacterial activity against Clostridioides difficile RT293/ST129 clinical isolate expressing A+B+ toxin assessed as inhibition of bacterial growth incubated for 24 hrs by CLSI based agar dilution method. In kind it is functional.
Series [17] is described as follows: Clearance in Sprague-Dawley rat at 2 mg/kg, iv measured up to 8 hrs by LC-MS/MS analysis. The series is classed as ADME, organism-based. As to conditions: in vivo.
Series [18] in a line: Half life in Sprague-Dawley rat at 10 mg/kg, po measured up to 8 hrs by LC-MS/MS analysis. In kind it is ADME, organism-based. The note with it: in vivo, BLD = below limit of detection.
Series [19] deals with Clostridioides difficile. As to the kind of experiment: Antibacterial activity against Clostridioides difficile RT015/ST35 clinical isolate expressing A+B+ toxin assessed as inhibition of bacterial growth incubated for 24 hrs by CLSI based agar dilution method. The series is classed as functional.
The test system of series [20] is Clostridioides difficile. As to the kind of experiment: Antibacterial activity against Clostridioides difficile RT027 assessed as regrowth of bacteria at 0.5 times MIC measured after 6 hrs by CLSI based time kill curve assay. In kind it is functional, organism-based.
For series [21], the system named is Clostridioides difficile. As to the kind of experiment: Antibacterial activity against Clostridioides difficile RT012/ST54 clinical isolate expressing A+B+ toxin assessed as inhibition of bacterial growth incubated for 24 hrs by CLSI based agar dilution method. The series is classed as functional.
In series [22] the test system is Clostridioides difficile. As to the kind of experiment: Antibacterial activity against Clostridioides difficile RT027 assessed as reduction in bacterial count at 1 to 4 times MIC measured after 24 hrs by CLSI based time kill curve assay. In kind it is functional.
A short description of series [23]: AUClast in Sprague-Dawley rat at 2 mg/kg, iv measured up to 8 hrs by LC-MS/MS analysis. The series is classed as ADME, organism-based. Further details: time < 8 hrs, dose 2 mg/kg, route iv. The note with it: in vivo.
Series [24] deals with SH-SY5Y. As to the kind of experiment: Cytotoxicity against human SH-SY5Y cells assessed as reduction in cell viability at 40 uM incubated for 48 hrs by CCK-8 assay. The series is classed as toxicity, cell-based.
Series [25] deals with Clostridioides difficile. As to the kind of experiment: Antibacterial activity against Clostridioides difficile RT078/ST11 clinical isolate expressing A+B+CDT+ toxin assessed as inhibition of bacterial growth incubated for 24 hrs by CLSI based agar dilution method. In kind it is functional.
Series [26] has as its system Clostridioides difficile. The series can be described thus: Antibacterial activity against Clostridioides difficile RT001/ST3 clinical isolate expressing A+B+ toxin assessed as inhibition of bacterial growth incubated for 24 hrs by CLSI based agar dilution method. In kind it is functional.
Series [27] has as its system Clostridioides difficile. As to the kind of experiment: Antibacterial activity against Clostridioides difficile ST221 clinical isolate expressing A+B+CDT+ toxin assessed as inhibition of bacterial growth incubated for 24 hrs by CLSI based agar dilution method. In kind it is functional.
Series [28] in a line: Volume of distribution at steady state in Sprague-Dawley rat at 10 mg/kg, po measured up to 8 hrs by LC-MS/MS analysis. As to conditions: in vivo, BLD = below limit of detection. The series is classed as ADME, organism-based.
Series [29] concerns Clostridioides difficile. As to the kind of experiment: Antibacterial activity against Clostridioides difficile RT027 assessed as reduction in bacterial count at 5 ug/ml measured after 24 hrs by CLSI based time kill curve assay. In kind it is functional. The note with it: dose 5 µg/ml.

Regarding `C/C=C(\NC(=O)c1csc(-c2csc(-c3ccc4c(n3)-c3csc(n3)[C@H]([C@@H](C)O)NC(=O)c3csc(n3)[C@H](C(C)C)NC(=O)c3csc(n3)/C(=C/C)NC(=O)[C@H]([C@@H](C)O)NC(=O)c3csc-4n3)n2)n1)C(=O)NCC(C)=O`, the MRT (as a rule, a mean duration of stay, worked out from the concentration-time curve) in series [1] is 24 min; in series [5] it was “Bld”. Besides, the minimal inhibitory concentration (MIC) in [2], in series [4], in series [6], in series [12], in series [13] and in series [14] was 1 µg/mL (≈ 0.875 µM) each time. Further, the minimum inhibitory concentration (MIC) (in general, the lowest concentration that inhibits growth of the organism) in series [16] amounted to 1 µg/mL (≈ 0.875 µM); in [19], 1 µg/mL (≈ 0.875 µM); in series [21] it was 2 µg/mL (≈ 1.75 µM); in series [25] it was 1 µg/mL (≈ 0.875 µM); in [26], 2 µg/mL (≈ 1.75 µM); in series [27], 2 µg/mL (≈ 1.75 µM). Also, the result in [3], in series [15] and in series [20] was Active. Further, the Activity in series [7] is given as 100%; in series [9], “Non-Toxic”; in series [22], 2.5 log10CFU; in series [24] it was “Non-Toxic”. Further, the half-life (commonly the time needed for the level to fall by half in the phase considered) in series [8] was 48 min. For the same compound, the Vd in series [10] was 2.1 L/kg. For the same compound, the CL entry in [11] is “Bld”. Further, the clearance – broadly, the rate of elimination divided by the concentration – in series [17] was 88.9 mL/min/kg. The t1/2 entry in series [18] was “Bld”. Also, in series [23], the AUC(0-t) (as a rule, exposure summed from dosing to a finite time, without extrapolation to infinity) at 8 h was found to be 374 ng·h/mL. Besides, the Vdss result in series [28] was “Bld”.

`CN[C@H](CC(C)C)C(=O)N[C@H]1C(=O)N[C@@H](CC(N)=O)C(=O)N[C@H]2C(=O)N[C@H]3C(=O)N[C@H](C(=O)N[C@H](C(=O)O)c4cc(O)cc(O)c4-c4cc3ccc4O)[C@H](O)c3ccc(c(Cl)c3)Oc3cc2cc(c3O[C@@H]2O[C@H](CO)[C@@H](O)[C@H](O)[C@H]2O[C@H]2C[C@](C)(N)[C@H](O)[C@H](C)O2)Oc2ccc(cc2Cl)[C@H]1O` [VANCOMYCIN]: the minimal inhibitory concentration (MIC) in series [2] amounted to 0.5 µg/mL (≈ 0.345 µM); in series [4], 1 µg/mL (≈ 0.69 µM); in series [6] it was 0.5 µg/mL (≈ 0.345 µM); in [12] it was 0.5 µg/mL (≈ 0.345 µM); in [13], 0.5 µg/mL (≈ 0.345 µM); in series [14], 1 µg/mL (≈ 0.69 µM). The minimal inhibitory concentration (MIC) in series [16], in series [19], in [21], in series [25], in series [26] and in series [27] was 1 µg/mL (≈ 0.69 µM) throughout. The Activity in [29] is 1.5 log10CFU.
